Laboratory results from PubChem BioAssay AID179 (DTP/NCI, 2004).
Calls of active or inactive are those of the source.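 The calls were made as follows: active = compounds giving half or more protection of infected cells from virus-caused growth loss, again on retest; inactive = the rest.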

System: CEM cells HIV-1 protection, formazan growth assay
Test: NCI AIDS Antiviral Assay
Conditions: for IC50: measured here: growth of uninfected CEM cells
Summary of the method: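 Human CEM cells, uninfected and HIV-1-infected, exposed to five drug concentrations; growth measured by soluble formazan assay and scored as percent protection from infection, with protecting compounds retested.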

Structure (SMILES)	EC50 [µM]	IC50 [µM]	outcome
C=C(C)CNC(=S)N(N)c1ccc2ccccc2c1	> 200	58.9	–
CC1=NN(c2ccccc2)C(=O)C1N=Nc1ccc(S(=O)(=O)Nc2nnc(C)s2)cc1 (configuration not stated)	–	–	inactive
N=C(N)n1[nH]c2c(c1=O)CCCC2	> 200	> 200	–
COC(=O)N1[C@@H]2C=CC=CC=C2[C@@H](OC)N1C(=O)OC	> 158	89.1	–
O=S1Nc2c(Cl)cc(Cl)c3c(Cl)cc(Cl)c(c23)N1	–	–	inactive
ClC1(Cl)C2CCOC21n1cnc2ccccc21 (configuration not stated)	> 200	102	–
O=C(Nc1ccc(N=Nc2ccc(S(=O)(=O)O)cc2)cc1)c1ccc(N=Nc2ccc3c(S(=O)(=O)O)cccc3c2O)cc1	30.9	195	–
C=CCN1c2ccccc2Sc2cnccc21	> 191	33.1	–
N=c1c2ccccc2nnn1-c1ccccc1[N+](=O)[O-]	–	–	inactive
CC1(C)N=C(c2ccccc2)C2(c3ccccc3)N1C2(C)C (configuration not stated)	> 234	224	–
O=c1[nH]c(Nc2ccccc2)nc2c1ncn2CC(O)CSCCO (configuration not stated)	> 200	> 200	–
C/C(=N\NC(=S)N(C)C)c1ccccn1	> 2.24	0.0138	–
COc1c(O)c2c(=O)cc(OC)c3c4c(OC)cc(=O)c5c(O)c(OC)c6c(c(c1CC(C)=C6OC(C)=O)c23)c54	> 4.79	1.29	–
CCOC(=O)[C@@H]1[C@@H]2NC(=O)N[C@@]1(C)Oc1ccccc12	> 200	> 200	–
CCCCOP(=O)(OCCCC)OP(=O)(OCCCC)OCCCC	> 200	> 200	–
CC(C)C(NCc1c2ccccc2nc2ccccc12)C(=O)O (configuration not stated)	–	–	inactive
N#CC(C#N)N=Cc1ccncc1	> 200	170	–
CC(C)(C)C(=O)/C=C/c1ccccc1F	> 49	> 49	–
Oc1c(C2=NNC(c3ccc(Cl)cc3Cl)C2)ccc2ccccc12 (configuration not stated)	> 200	32.4	–
Cc1cn(C2CC(N=[N+]=[N-])C(COP(=O)(OCC(=O)C(C)(C)C)OCC(=O)C(C)(C)C)O2)c(=O)[nH]c1=O (configuration not stated)	0.0011	2	–
Cc1ccc(N=Nc2ccc(O)c(CN(C)C)c2)cc1C	> 200	17.4	–
CN(C)CCCN1CCC2(CCCCC2)CC1	–	–	inactive
CCN1C[C@]2(COC)C(O)CC(OC)C34[C@@H]5C[C@@]6(O)C(O)[C@@H]5[C@](O)(C(O)[C@@H]6OC)[C@@H](C(OC)[C@@H]32)[C@H]14 (some centres not stated)	–	–	inactive

Structure (SMILES)	EC50 [µM]	IC50 [µM]	outcome
Nc1ccccc1C(=O)/C=C/c1ccccc1O	> 74.1	52.5	–
O=C(O)C1=CC(=C(c2ccc(O)c(C(=O)O)c2)c2ccc(O)c(C(=O)O)c2)C=CC1=O	> 1660	> 1660	–
CCCc1cc(=O)oc2c3c(c4c(c12)OC(C)(C)C=C4)O[C@H](C)[C@@H](C)[C@@H]3O	4.68	16.2	–
Cc1cc(C)nc(NS(=O)(=O)c2ccc(Nc3c4ccccc4nc4c(C(=O)Nc5ccc(S(=O)(=O)Nc6cc(C)on6)cc5)cccc34)cc2)n1	> 35.5	> 35.5	–
COc1ccc2c(c1)OCCCN(C)OC2c1ccccc1 (configuration not stated)	–	–	inactive
COc1ccc([C@@]23Oc4cc(OC)cc(OC)c4[C@]2(O)[C@H](O)[C@H](C(=O)N(C)C)[C@H]3c2ccccc2)cc1	> 200	0.0631	–
CN(C)C(=S)SSSSC(=S)N(C)C	> 2	0.525	–
O=C(O)c1ccc(NCc2nc3ccccc3[nH]2)cc1	> 200	> 200	–
C=CCN1CN(c2ccccc2)C2(CCN(CCCC3(c4ccc(F)cc4)OCCO3)CC2)C1=O	> 200	11.5	–
NC(N)=N/N=C/c1ccc[nH]1	> 200	> 200	–
O=c1ccn([C@@H]2C[C@H]2CO)c(=O)[nH]1	–	–	inactive
CCOC(=O)CC(NC(=O)c1[nH]cnc1/N=N/N(C)C)C(=O)OCC (configuration not stated)	> 708	> 708	–
NS(=O)(=O)c1nnc(/N=C(/CCC(=O)O)C(=O)O)s1	> 200	> 200	–
CSC1=Nc2ccccc2N=C(c2ccccc2)C1	> 26.9	> 26.9	–
COc1cc(C2c3cc4c(cc3OC(N3CCCCC3)C2C)OCO4)cc(OC)c1OC (configuration not stated)	> 50.1	0.398	–
S=c1[nH]c(=S)c2[nH]cnc2[nH]1	> 200	85.1	–
CC(=O)O[C@H]1CC[C@@]2(C)C(=C[C@H](c3ccc(O)cc3)[C@H]3[C@@H]4CC[C@H](OC(C)=O)[C@@]4(C)CC[C@@H]32)C1	> 200	22.9	–
Nc1c(N=Nc2ccc(CCc3ccc(N=Nc4cc(S(=O)(=O)O)c5cccc(S(=O)(=O)O)c5c4N)cc3S(=O)(=O)O)c(S(=O)(=O)O)c2)cc(S(=O)(=O)O)c2cccc(S(=O)(=O)O)c12	6.31	148	–
COC(=O)C1(Cc2ccc3c(c2)CCC3)Cc2ccc3c(c2C1O)CCC3 (configuration not stated)	> 200	12.3	–
CCN(CC)CCCC(C)Nc1ccnc2cc(F)ccc12 (configuration not stated) (tested in a mixture with another compound)	> 200	> 200	–
NCCCN(CCCN(C(=O)Nc1ccccc1)c1ccccc1)C(=O)Nc1ccccc1	> 200	55	–
CC1=NN(C(=O)CC(=O)Nc2ccc(C)cc2)C(=O)C1N=Nc1ccc(C(=O)O)cc1 (configuration not stated)	> 200	39.8	–
